Data taken from patent publication US20210003580A1, “METHODS OF DETECTION AND TREATMENT OF HYPER TRANSCRIPTION DISEASES” (BOARD OF REGENTS OF THE UNIVERSITY OF TEXAS SYSTEM, priority 2018, published 2021).

B1: EWSR1: purified recombinant EWSR1 protein (TP303709, Origene) (protein, UniProt Q01844 1-656, looked up)
RNA-binding protein EWS: MASTDYSTYSQAAAQQGYSAYTAQPTQGYAQTTQAYGQQSYGTYGQPTDVSYTQAQTTATYGQTAYATSYGQPPTGYTTPTAPQAYSQPVQGYGTGAYDTTTATVTTTQASYAAQSAYGTQPAYPAYGQQPAATAPTRPQDGNKPTETSQPQSSTGGYNQPSLGYGQSNYSYPQVPGSYPMQPVTAPPSYPPTSYSSTQPTSYDQSSYSQQNTYGQPSSYGQQSSYGQQSSYGQQPPTSYPPQTGSYSQAPSQYSQQSSSYGQQSSFRQDHPSSMGVYGQESGGFSGPGENRSMSGPDNRGRGRGGFDRGGMSRGGRGGGRGGMGSAGERGGFNKPGGPMDEGPDLDLGPPVDPDEDSDNSAIYVQGLNDSVTLDDLADFFKQCGVVKMNKRTGQPMIHIYLDKETGKPKGDATVSYEDPPTAKAAVEWFDGKDFQGSKLKVSLARKKPPMNSMRGGLPPREGRGMPPPLRGGPGGPGGPGGPMGRMGGRGGDRGGFPPRGPRGSRGNPSGGGNVQHRAGDWQCPNPGCGNQNFAWRTECNQCKAPKPEGFLPPPFPPPGGDRGRGGPGGMRGGRGGLMDRGGPGGMFRGGRGGDRGGFRGGRGMDRGGFGGGRRGGPGGPPGPLMEQMGGRRGGRGGPGKMDKGEHRQERRDRPY
B2: FUS: purified recombinant FUS protein (TP301808, Origene) (protein, UniProt P35637 1-526, looked up)
RNA-binding protein FUS: MASNDYTQQATQSYGAYPTQPGQGYSQQSSQPYGQQSYSGYSQSTDTSGYGQSSYSSYGQSQNTGYGTQSTPQGYGSTGGYGSSQSSQSSYGQQSSYPGYGQQPAPSSTSGSYGSSSQSSSYGQPQSGSYSQQPSYGGQQQSYGQQQSYNPPQGYGQQNQYNSSSGGGGGGGGGGNYGQDQSSMSSGGGSGGGYGNQDQSGGGGSGGYGQQDRGGRGRGGSGGGGGGGGGGYNRSSGGYEPRGRGGGRGGRGGMGGSDRGGFNKFGGPRDQGSRHDSEQDNSDNNTIFVQGLGENVTIESVADYFKQIGIIKTNKKTGQPMINLYTDRETGKLKGEATVSFDDPPSAKAAIDWFDGKEFSGNPIKVSFATRRADFNRGGGNGRGGRGRGGPMGRGGYGGGGSGGGGRGGFPSGGGGGGGQQRAGDWKCPNPTCENMNFSWRNECNQCKAPKPDGPGGGPGGSHMGGNYGDDRRGGRGGYDRGGYRGRGGDRGGFRGGRGGGDRGGFGPGKMDSRGEHRQDRRERPY

Columns and labels:
EwS cell lines = assay: Cell viability (Celltiter-Glo) after drug exposure, EwS cell lines vs controls; type: cell-based, human; details: cell viability measured after 72 hours exposure, compared to controls IMR90 / U2OS
Method: Cell culture and transfections. Ewing sarcoma cell lines (TC32, CHLA10 and CHLA258) were obtained from Children's Oncology Group and EWS502 was obtained from Dr. Lessnick. Of note, TC32 is highly chemosensitive and CHLA10 was derived from a post-treatment recurrent chemoresistant tumor (Table 1). As controls, IMR90 (primary human neonatal fibroblast) and U2OS (pediatric Osteosarcoma) cell lines were obtained from ATCC. IMR90 and U2OS were cultured in DMEM (Corning), TC32, EWS502, RDES in […] (Corning), SKES1 in McCoys (Corning) and CHLA10, CHLA258 in IMDM (HyClone); all cultured media were supplemented with 10% FBS (Atlanta Biologicals) and 1% antibiotic/antimycotic solution (Corning). Cells were maintained at 37° C. in a humidified atmosphere with 5% CO2 and tested for mycoplasma contamination.
(§1) Cell viability. Cells were seeded at 30% confluence in 96 or 384 well plates with or without reverse transfection with siRNA. For plasmid expression, cells were transfected in 60 mm dishes first and then split into 96 or 384 well plates. The following day, the cells were treated to different drugs/inhibitors and cell viability was evaluated after 48 to 72 hours using Celltiter-Glo (Promega). Each condition was tested in triplicate. […] Drug screening data from an independently published study was obtained from http://www.cancerrxgene.org/.

[1] = system: U2OS cells with EWSR1 knockdown; assay: Cell viability, EWSR1-depleted U2OS cells; type: cell-based, human; details: U2OS siEWSR1 relative to U2OS siCtrl; 72 hours
Method: (§2) All transfections were carried out using Lipofectamine RNAiMax, Lipofectamine 3000 (Invitrogen) following manufacturer's instructions. For RNASEH1 transfections, 3×10^6 TC32 cells were transfected with 13 μg of plasmid DNA using Amaxa nucleofection (program X-001). Gene knockdowns were performed by reverse transfection whereas plasmid transfections were performed 24 hours after seeding. The siRNAs used in this study include: BRCA1 and EWSR1 (Life Technologies), EWSR1, BRCA1, FLI1, FUS, TAF15, 53BP1, FANCA, FANCD2 and FANCI (Santa Cruz). For some experiments, lentiviral transduction of TC32 with shCtrl (clone RHZ4743, Life Technologies) or shFLI1 (clone V2THS227524 or V3THS414176, Life Technologies) was performed. EWS-FLI1, EWS-FLI1 R2L2, EWS-ERG, EWSR1 (full length) and shEWSR1 in pMSCV vector were obtained from Dr. Stephen Lessnick. EWSR1 N terminal domain in pLX304 vector was purchased from DNASU. GFP-RNASEH1 and FLAG-RNASEH1 plasmids were a kind gift from Dr. Robert Crouch (Eunice Kennedy Shriver National Institute of Child Health and Human Development). HA-BRCA1 was obtained from Dr. Yuzuru Shiio (UTH-SA). ISceI in pCAGGS vector was a kind gift from Dr. Maria Jasin (Memorial Sloan Kettering Cancer Center) and Dr. Jeremy Stark (City of Hope Cancer Center). All siRNA and plasmid transfections were accompanied with control siRNA or empty vector respectively.
as §1

[2] = system: U2OS cells transfected with EWS-FLI1; assay: Cell viability, U2OS cells transfected with EWS-FLI1 vs empty vector; type: cell-based, human; details: compared to empty vector (EV) transfected cells
Method: as §2, with “ISceI in pCAGGS vector was a kind gift from Dr. Maria Jasin (Memorial Sloan Kettering Cancer Center) and Dr. Jeremy Stark (City of Hope Cancer Center). All siRNA and plasmid transfections were accompanied with control siRNA or empty vector respectively.” left out
Cell viability. […] The following day, the cells were treated to different drugs/inhibitors and cell viability was evaluated after 48 to 72 hours using Celltiter-Glo (Promega). […]

IMR90 cells = assay: Transcription recovery assay (EU incorporation), IMR90; type: cell-based, human; details: exposed for 2 or 16 hours, 30 min EU labeling
Method: (§3) Transcription Recovery Assay. […] Post-incubation, cells were fixed, permeabilized and subjected to Click-iT RNA reaction (Click-iT RNA Alexa Flour […] Imaging kit, ThermoFisher Scientific) according to manufacturer's instructions. Washed coverslips were mounted onto glass slides using ProLong Antifade Mounting Solution with DAPI (ThermoFisher Scientific) and imaged using a Zeiss microscope at 63×. A minimum of 100 cells were analyzed for each condition. Image analysis was performed using ImageJ.

TC32 cells = assay: Transcription recovery assay (EU incorporation), TC32; type: cell-based, human; details: exposed for 2 or 16 hours, 30 min EU labeling
Method: as §3

CDK9/cyclin T1 = biological target: T1, CDK9/cyclin T1 (Homo sapiens, UniProt P50750); assay: In vitro RNAPII phosphorylation assay (Adapta kinase assay), CDK9; type: biochemical; details: 1 μM recombinant protein; substrates CDKtide or RNAPII CTD fragment; relative to vehicle
T1 construct: purchased ThermoFisher Scientific PV4131
Method: In vitro RNAPII phosphorylation assay. The following purified recombinant proteins were purchased: RNAPII CTD fragment (POLR2A-1149H, Creative BioMart), EWSR1 (TP303709, Origene), FUS (TP301808, Origene), CDK9/cyclin T1 (PV4131, ThermoFisher Scientific) and CDK7/cyclin H/MNAT1 (ab64303, Abcam). The in vitro kinase assay was performed using the Adapta kinase assay (PV5099, ThermoFisher Scientific) according to manufacturer's instructions. The template used for kinase activity was either 50 μM CDK7/9tide provided in the kit (PV5090, ThermoFisher Scientific), or 12 ng RNAPII CTD fragment. 1 μM EWSR1 or FUS was added to the substrate and 10 μM ATP kinase buffer and pre-incubated for 15 min. 1.77 μg/ml CDK9/cyclin T1 or 5.6 μg/ml CDK7/cyclin H/MNAT1 were then added and the kinase reaction was allowed to proceed for a further 45 minutes. 10 μM ADP and 10 μM ATP served positive and negative controls. Finally, Eu-labeled antibody and Alexa Fluor-647-labeled tracer added and the level of ATP consumption was measured 30 minutes later using BMG Labtech Pherastar microplate reader. Each condition was tested in quadruplicate and the overall experiment was repeated at least 3 times for independent validation.

T1 sequence (P50750 whole entry, the tested form may be a part): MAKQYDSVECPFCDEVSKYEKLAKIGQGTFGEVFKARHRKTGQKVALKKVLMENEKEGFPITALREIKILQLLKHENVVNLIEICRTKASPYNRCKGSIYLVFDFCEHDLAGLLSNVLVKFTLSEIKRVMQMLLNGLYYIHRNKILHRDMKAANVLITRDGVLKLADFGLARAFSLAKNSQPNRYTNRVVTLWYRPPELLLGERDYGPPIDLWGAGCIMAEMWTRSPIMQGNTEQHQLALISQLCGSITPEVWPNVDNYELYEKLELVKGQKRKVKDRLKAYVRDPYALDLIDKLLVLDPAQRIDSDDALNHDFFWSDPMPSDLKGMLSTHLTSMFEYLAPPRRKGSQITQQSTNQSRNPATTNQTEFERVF
T1 sequence (O60563 whole entry partner, the tested form may be a part): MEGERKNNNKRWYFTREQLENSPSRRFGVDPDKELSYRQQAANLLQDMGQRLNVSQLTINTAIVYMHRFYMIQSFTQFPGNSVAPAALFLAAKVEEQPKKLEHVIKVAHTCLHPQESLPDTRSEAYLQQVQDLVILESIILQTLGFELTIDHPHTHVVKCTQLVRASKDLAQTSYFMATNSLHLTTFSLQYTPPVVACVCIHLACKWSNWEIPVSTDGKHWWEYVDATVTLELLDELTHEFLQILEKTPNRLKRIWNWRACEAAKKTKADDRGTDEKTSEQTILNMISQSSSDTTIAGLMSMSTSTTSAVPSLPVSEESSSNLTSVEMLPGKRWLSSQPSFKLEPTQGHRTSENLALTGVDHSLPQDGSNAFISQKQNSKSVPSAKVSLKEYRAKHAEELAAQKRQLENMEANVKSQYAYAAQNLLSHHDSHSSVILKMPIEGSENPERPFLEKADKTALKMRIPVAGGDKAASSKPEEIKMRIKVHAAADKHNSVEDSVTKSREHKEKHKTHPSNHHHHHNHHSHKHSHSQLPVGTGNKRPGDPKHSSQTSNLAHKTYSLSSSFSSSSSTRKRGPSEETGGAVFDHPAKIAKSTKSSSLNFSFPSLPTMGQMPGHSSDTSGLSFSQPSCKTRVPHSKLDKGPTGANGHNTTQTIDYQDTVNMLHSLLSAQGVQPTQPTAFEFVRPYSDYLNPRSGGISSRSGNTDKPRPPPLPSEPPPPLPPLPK

Row | Molecule | sensitivity (cell viability) of EwS cell lines compared to controls (EwS cell lines) | sensitivity (cell viability) of EWSR1-depleted U2OS cells [1] | further results
1 | OC[C@H]1O[C@@H](n2cnc3cc(Cl)c(Cl)cc32)[C@H](O)[C@@H]1O [DRB, 5,6-dichloro-1-β-D-ribofuranosyl-1H-benzimidazole] | much more sensitive | much more sensitive | 
2 | O=C(c1cc(Cc2n[nH]c(=O)c3ccccc23)ccc1F)N1CCN(C(=O)C2CC2)CC1 [Olaparib] | exquisite sensitivity |  | sensitivity (cell viability) of EwS cell lines compared to controls (EwS cell lines; listed as olaparib): acutely sensitive; sensitivity (cell viability) of U2OS cells expressing EWS-FLI1 [2]: exquisite sensitivity
3 | O=c1c2ccccc2sn1-c1ccccc1 [R11] | significantly higher sensitivity |  | 
4 | CS(=O)(=O)c1ccc(-c2cnc(N)c(C(=O)Nc3ccccc3)n2)cc1 [VE-821] | significantly more sensitive | significantly more sensitive | sensitivity (cell viability) of U2OS cells expressing EWS-FLI1 [2]: significantly more sensitive
5 | CC[C@@]1(O)C(=O)OCc2c1cc1n(c2=O)Cc2cc3ccccc3nc2-1 [camptothecin] | much more sensitive | much more sensitive | 
6 | COc1cc([C@@H]2c3cc4c(cc3[C@@H](O[C@@H]3O[C@@H]5CO[C@@H](C)O[C@H]5[C@H](O)[C@H]3O)[C@H]3COC(=O)[C@H]23)OCO4)cc(OC)c1O [etoposide] | acutely sensitive |  | transcriptional activity (EU incorporation) after exposure (IMR90 cells): decrease in EU incorporation two hours post-damage followed by recovery at 16 hours; transcriptional activity (EU incorporation) after exposure (TC32 cells): much delayed loss of transcription
7 | NC(=O)NO [hydroxyurea] | acutely sensitive |  | 
8 | B1 |  |  | inhibition of phosphorylation of RNAPII CTD by CDK9 (CDK9/cyclin T1): inhibited
9 | B2 |  |  | inhibition of phosphorylation of RNAPII CTD by CDK9 (CDK9/cyclin T1): inhibited
